In ChEMBL document CHEMBL4819020, “Discovery of [1,2,4]triazolo[1,5-a]pyrimidines derivatives as potential anticancer agents” (Eur J Med Chem, 2021):
Calls of active or inactive are those of the source. No cut-off for these calls is given here.

Experiments:
MGC-803 [1] = test: Cell cycle arrest in human MGC-803 cells assessed as accumulation of cells in G0/G1 phase at 1.5 uM measured after 24 hrs by PI staining based flow cytometry assay (reference value: 49.39%); type: functional
MGC-803 [2] = test: Induction of apoptosis in human MGC-803 cells assessed by increase in ROS production at 3 uM measured after 24 hrs by DCFH-DA staining based flow cytometry; type: functional, cell-based
MGC-803 [3] = test: Induction of apoptosis in human MGC-803 cells assessed as increase in cleaved caspase 3/9 expression at 0.75 to 3 uM measured after 48 hrs by western blot assay; type: functional, cell-based; conditions: dose 0.75-3 µM
MGC-803 [4] = test: Induction of apoptosis in human MGC-803 cells assessed as increase in cleaved caspase expression at 0.75 to 3 uM measured after 48 hrs by western blot assay; type: functional, cell-based; conditions: dose 0.75-3 µM
MGC-803 [5] = test: Cell cycle arrest in human MGC-803 cells assessed as accumulation of cells in S phase at 3 uM measured after 24 hrs by PI staining based flow cytometry assay (reference value: 18.03%); type: functional
[6] = Toxicity in mouse assessed by effect on changes in body weight at 2 mg/kg, ig measured after 2 weeks; type: organism-based; conditions: in vivo, po, 336 h
MGC-803 [7] = test: Induction of apoptosis in human MGC-803 cells assessed by formation of apoptotic bodies at 0.75 to 3 uM measured after 48 hrs by Hoechst 33342 staining based microscopic method; type: functional, cell-based; conditions: dose 0.75-3 µM
MGC-803 [8] = test: Inhibition of cell migration in human MGC-803 cells measured after 48 hrs by wound healing assay; type: functional, cell-based; conditions: dose 0.25-1 µM
MGC-803 [9] = test: Induction of apoptosis in human MGC-803 cells assessed as early apoptotic cells at 1.5 uM measured after 48 hrs by Annexin V-FITC/PI staining based flow cytometry method (reference value: 0.992 %); type: functional
MGC-803 [10] = test: Induction of apoptosis in human MGC-803 cells assessed by cell rounding at 0.75 to 3 uM measured after 48 hrs by Hoechst 33342 staining based microscopic method; type: functional; conditions: dose 0.75-3 µM
MGC-803 [11] = test: Cell cycle arrest in human MGC-803 cells assessed as accumulation of cells in G2/M phase at 0.75 uM measured after 24 hrs by PI staining based flow cytometry assay (reference value: 33.35%); type: functional
MGC-803 [12] = test: Induction of apoptosis in human MGC-803 cells assessed as upregulation of Bax at 0.75 to 3 uM measured after 48 hrs by western blot assay; type: functional, cell-based; conditions: dose 0.75-3 µM

Cc1cc(Nc2ccn(Cc3nc(C)c4ccccc4n3)n2)n2nc(SCc3ccc(Br)cc3)nc2n1
Activity (MGC-803 [1]): 57.78% | Activity (MGC-803 [2]): Active | Activity (MGC-803 [3]): Dose-Dependent Effect | Activity (MGC-803 [4]): Dose-Dependent Effect | Activity (MGC-803 [5]): 18.5% | Activity [6]: Non-Toxic | Activity (MGC-803 [7]): Dose-Dependent Effect | Activity (MGC-803 [8]): Dose-Dependent Effect | Activity (MGC-803 [9]): 6.85% | Activity (MGC-803 [10]): Dose-Dependent Effect | Activity (MGC-803 [11]): 19.3% | Activity (MGC-803 [12]): Dose-Dependent Effect
